This is an account of results in patent publication US20090105278A1, “Selective inhibitors of human corticosteroid syntheses” (Universitat Des Saarlandes, priority 2004, published 2009).

SMILES strings stand for the structures. Structures can show the parent of a compound that is named as a salt.

Tested on in one data set: not given
Assay: not given
Settings: not given
Broadly, the melting point is the temperature, or range, at which the solid turns liquid. In turn, `Fc1ccc2c(c1)CC/C2=C\c1cccnc1` (as salt: hydrochloride) [Compound 5a, 3-[(E)-(5-Fluoro-2,3-dihydro-1H-indane-1-ylidene)methyl]pyridine Hydrochloride] had a melting point of 245 °C. As to `Fc1ccc2c(c1)CC/C2=C/c1cccnc1` (as salt: hydrochloride) [Compound 5b, 3-[(Z)-(5-Fluoro-2,3-dihydro-1H-indane-1-ylidene)methyl]pyridine Hydrochloride], the melting point was determined as 245 °C. In turn, `Fc1ccc2c(c1)CC/C2=C\c1ccncc1` (as salt: hydrochloride) [Compound 6a, 4-[(E)-(5-Fluoro-2,3-dihydro-1H-indane-1-ylidene)methyl]pyridine Hydrochloride] yielded a melting point of 224 °C. For the compound `Fc1ccc2c(c1)CC/C2=C/c1ccncc1` (as salt: hydrochloride) [Compound 6b, 4-[(Z)-(5-Fluoro-2,3-dihydro-1H-indane-1-ylidene)methyl]pyridine Hydrochloride], the melting point came out at 223 °C. Still for that read-out and setting: for `Clc1ccc2c(c1)CC/C2=C\c1cccnc1` (as salt: hydrochloride) [Compound 7a, 3-[(E)-(5-Chloro-2.3-dihydro-1H-indane-1-ylidene)methyl]pyridine Hydrochloride] the value was 234 °C; for `Clc1ccc2c(c1)CC/C2=C/c1cccnc1` (as salt: hydrochloride) [Compound 7b, 3-[(Z)-(5-Chloro-2,3-dihydro-1H-indane-1-ylidene)methyl]pyridine Hydrochloride], 238 °C. Consider `Clc1ccc2c(c1)CC/C2=C\c1ccncc1` (as salt: hydrochloride) [Compound 8a, 4-[(E)-(5-Chloro-2,3-dihydro-1H-indane-1-ylidene)methyl]pyridine Hydrochloride], for which the melting point worked out at 213 °C. The same measure, in the same setting: the result for `Brc1ccc2c(c1)CC/C2=C\c1cccnc1` (as salt: hydrochloride) [Compound 9a, 3-[(E)-(5-Bromo-2,3-dihydro-1H-indane-1-ylidene)methyl]pyridine Hydrochloride] reads 241 °C; that for `Brc1ccc2c(c1)CC/C2=C/c1cccnc1` (as salt: hydrochloride) [Compound 9b, 3-[(Z)-(5-Bromo-2,3-dihydro-1H-indane-1-ylidene)methyl]pyridine Hydrochloride], 243 °C.

Take `Brc1ccc2c(c1)CC/C2=C\c1ccncc1` (as salt: hydrochloride) [Compound 10a, 4-[(E)-(5-Bromo-2,3-dihydro-1H-indane-1-ylidene)methyl]pyridine Hydrochloride]: the melting point was 266 °C. Consider `COc1ccc2c(c1)CC/C2=C/c1cccnc1` (as salt: hydrochloride) [Compound 11b, 3-[(Z)-(5-Methoxy-2,3-dihydro-1H-indane-1-ylidene)methyl]pyridine Hydrochloride], for which the melting point is 220 °C. As to `Cc1cccc2c1CC/C2=C\c1cccnc1` (as salt: hydrochloride) [Compound 23a, 3-[(E)-(4-Methyl-2,3-dihydro-1H-indane-1-ylidene)methyl]pyridine Hydrochloride], the melting point is 231 °C. In the case of `Fc1ccc2c(c1)CC/C2=C\c1cccc2cnccc12` (as salt: hydrochloride) [Compound 30a, 5-[(E)-(5-Fluoro-2,3-dihydro-1H-indane-1-ylidene)methyl]isoquinoline Hydrochloride], the melting point is 234 °C.

For `Fc1ccc2c(c1)CC/C2=C/c1cccc2cnccc12` (as salt: hydrochloride) [Compound 30b, 5-[(Z)-(5-Fluoro-2,3-dihydro-1H-indane-1-ylidene)methyl]isoquinoline Hydrochloride], the melting point amounted to 201 °C.

Regarding `C(=C1/CCc2ccccc21)/c1cnc[nH]1` (as salt: hydrochloride) [Compound 42a, 5-[(E)-2,3-Dihydro-1H-indane-1-ylidenemethyl]-1H-imidazole], the melting point lay in the range of 148 to 151 °C.

Turning to `C(=C1/CCc2ccccc21)/c1ccncc1` (as salt: oxalate) [Compound 2a, 4-[(E)-2,3-Dihydro-1H-indane-1-ylidenemethyl]pyridine Oxalate], the melting point stood at 167 °C. With `C(=C1\CCc2ccccc21)/c1cnc[nH]1` (as salt: oxalate) [Compound 42b, 5-[(Z)-2,3-Dihydro-1H-ind-1-ylidenemethyl]-1H-imidazolium oxalate], the melting point is 196 °C. The compound `c1cncc(-c2ccc3cccc4c3c2CC4)c1` (as salt: salt) [Compound 50, 3-(1,2-Dihydroacenaphthylene-3-yl)pyridine] returned a melting point of 208 °C.

The target in the next data set is T1, bovine adrenal CYP11B (Bos taurus, UniProt P15150).
T1 sequence (P15150 25-503): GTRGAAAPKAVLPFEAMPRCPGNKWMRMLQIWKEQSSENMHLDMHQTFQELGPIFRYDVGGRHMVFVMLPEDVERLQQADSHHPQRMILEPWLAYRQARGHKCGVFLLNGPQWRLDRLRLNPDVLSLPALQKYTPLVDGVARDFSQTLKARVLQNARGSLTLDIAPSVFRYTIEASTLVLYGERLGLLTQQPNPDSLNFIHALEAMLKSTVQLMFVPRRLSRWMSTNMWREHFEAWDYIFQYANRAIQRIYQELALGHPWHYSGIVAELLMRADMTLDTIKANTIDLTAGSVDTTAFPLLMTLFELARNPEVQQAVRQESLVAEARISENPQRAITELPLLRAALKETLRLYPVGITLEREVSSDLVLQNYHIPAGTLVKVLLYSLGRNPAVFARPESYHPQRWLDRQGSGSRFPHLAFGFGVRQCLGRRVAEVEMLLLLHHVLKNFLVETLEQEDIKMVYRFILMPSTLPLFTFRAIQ
Kind of data set: Percent inhibition of bovine CYP11B (adrenal mitochondria). The note with it: read-out: % Inhibition bovine bCYP11B, bovine adrenal mitochondria, 1 mg/ml protein; corticosterone substrate 200 μM; inhibitor 1 μM.
Description: Bovine adrenal glands obtained freshly after slaughtering were stored in ice cold Tris-sucrose buffer (0.25 M sucrose, 0.05 M Tris; pH 7.4) until processed. After removing the appending adipose tissue, the adrenal medulla was carefully separated from the adrenal cortex using scissors. The pieces of adrenal cortex were coarsely comminuted with scissors, washed with Tris-sucrose buffer, weighed and finely comminuted in the above buffer (2 ml per g of tissue) with a hand mixer. Thereafter, the tissue was homogenized with an Ultra-Turrax mixer. For separating coarse cell debris and the nuclei, the homogenizate was centrifuged twice for 15 min at 900 g and 4° C. The supernatant was subsequently centrifuged for 35 min at 11,000 g for recovering the mitochondrial fraction. For purifying the mitochondrial fraction, the precipitate was resuspended in Tri-sucrose buffer and again centrifuged at 11,000 g for 35 min. This washing step was performed two times in total. After the last centrifugation, the pellet was resuspended in Tris-sucrose buffer containing 0.001 M EDTA and frozen at −70° C.
The substrate corticosterone was dissolved in methanol and diluted with Tris buffer to a final concentration of 200 μM. The inhibitors were also dissolved in methanol and diluted with buffer to a final concentration of 1 μM. […] Corticosterone (200 μM) was incubated with inhibitor (1 μM) and mitochondrial enzyme (0.5 mg/0.5 ml) with the addition of a regenerating system consisting of NADP^+ (1 mM), glucose-6-phosphate (7 mM) and glucose-6-Phosphate dehydrogenase (1 IU/0.5 ml). Up to 5 inhibitors per test could be incubated in duplicate. […] After preincubation for 5 minutes (30° C.; water bath), the reaction was started by adding mitochondrial suspension. […] The blind values were admixed with 250 μl of HCl before the enzyme was pipetted in. The steroids were separated off by shaking with 1 ml of ethyl acetate (10 min). After centrifugation (15,000 g, 10 min), 900 μl of the organic phase was shaken with 250 μl 1 N NaOH (10 min), and 800 μl of supernatant was again washed with 250 μl of buffer. […] 18-OH-corticosterone (retention time: 10 min) and corticosterone (retention time: 21 min) were separated. The height of the 18-OH-corticosterone peak was used for evaluation. The percent inhibition of the 18-hydroxylation of corticosterone by the inhibitors was based on the mediums of the control incubation, taking the blind values into account.
Consider `CC(=O)N1CCN(c2ccc(OCC3COC(Cn4ccnc4)(c4ccc(Cl)cc4Cl)O3)cc2)CC1` (stereo not shown) [Ketoconazole, reference compound], for which the inhibition at 1 µM came out at 78%.
